5 molecules from patent publication US11926613B2, “Kinase inhibitors for the treatment of central and peripheral nervous system disorders” (UNIVERSITY OF MIAMI, priority 2017, dated 2024) can be followed below.

Experiment [1] has as its system neurons from hippocampi of E18 rat embryos. Nature of the experiment: Neurite growth length (% NTL) in cultured E18 rat hippocampal neurons, 9-point dose response, 48 hours. The class given is cell-based. Conditions: Rattus norvegicus, Neuron, 48 h; for activity at 0.078 µM: 78 nM; for activity at 0.156 µM: 156 nM; for activity at 0.312 µM: 312 nM; for activity at 0.625 µM: 625 nM. A digest of the protocol:
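% NTL comes from automated neurite tracing of βIII-tubulin-stained cells, with 200–300 or more neurons per condition. Compounds were given in a 9-point dilution series (20 μM to 0.078125 μM) for 48 h. Cells were trypsin-dissociated E18 rat hippocampal neurons plated at 1500/well on poly-D-lysine.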

For the next experiment, the system named is Primary Neurons. Nature of the experiment: HCS neurite outgrowth assay (High Content Screening with Primary Neurons). The class given is cell-based. Conditions: Primary neuron.

A value given as a limit tells only on which side of the number the result lay.

In general, EC50 refers to the concentration needed to bring the measured effect to its halfway point. A low value points to higher potency in that assay. `COc1ccc(O)c(C(=O)c2ccc(C(=O)O[C@@H]3CCNC[C@H]3NC(=O)c3ccncc3)cc2)c1F` [Example A31, (3R,4R)-3-(pyridine-4-amido)piperidin-4-yl 4-(2-fluoro-6-hydroxy-3-methoxybenzoyl)benzoate]: in experiment [1], the activity at 0.078 µM came out at 122%, the activity at 0.156 µM came to 120%, the activity at 0.312 µM is 118% and the activity at 0.625 µM was 115%. For the same molecule, in experiment [1], the activity at 1.25 µM is 136%, the activity at 2.5 µM turned out to be 140%, the activity at 5 µM stood at 151% and the activity at 10 µM worked out at 142%. Also, the activity at 20 µM in experiment [1] was 137%. For the same molecule, it took 1.15 µM to reach a half-maximal effect in the experiment with Primary Neurons (EC50).
`Nc1nccc(C(=O)N[C@@H]2CNC[C@H]2NC(=O)c2ccc(C(=O)c3cccc(Cl)c3O)cc2)n1` [Example A70, 2-amino-N-[(3R,4R)-4-[4-(3-chloro-2-hydroxybenzoyl)benzamido]pyrrolidin-3-yl]pyrimidine-4-carboxamide]: in experiment [1], the activity at 0.078 µM is 103%, the activity at 0.156 µM came to 107%, the activity at 0.312 µM is 115% and the activity at 0.625 µM was 122%. Further, in experiment [1], the activity at 1.25 µM was 123%, the activity at 2.5 µM stood at 117%, the activity at 5 µM worked out at 122% and the activity at 10 µM came to 135%. The activity at 20 µM in experiment [1] came out at 145%. Moreover, the EC50 in the experiment on Primary Neurons was more than 20 µM.
As for `COc1ccc(O)c(C(=O)c2ccc(C(=O)N[C@@H]3CNC[C@H]3NC(=O)c3cn[nH]c3)cc2)c1F` [Example A43, N-[(3R,4R)-4-[4-(2-fluoro-6-hydroxy-3-methoxybenzoyl)benzamido]pyrrolidin-3-yl]-1H-pyrazole-4-carboxamide], in experiment [1], the activity at 0.078 µM turned out to be 118%, the activity at 0.156 µM came to 118%, the activity at 0.312 µM is 115% and the activity at 0.625 µM turned out to be 114%. In experiment [1], the activity at 1.25 µM was 124%, the activity at 2.5 µM is 136%, the activity at 5 µM worked out at 144% and the activity at 10 µM stood at 155%. Further, in experiment [1], the activity at 20 µM was found to be 173%. Also, a half-maximal effect in the experiment with Primary Neurons (EC50) was put at 3.11 µM.
As for `COc1ccc(C(=O)c2ccc(C(=O)N[C@@H]3CNC[C@H]3NC(=O)c3ccncc3)cc2)c(O)c1` [Example A83, N-[(3R,4R)-4-[4-(2-hydroxy-4-methoxybenzoyl)benzamido]pyrrolidin-3-yl]pyridine-4-carboxamide], in experiment [1], the activity at 0.078 µM was 106%, the activity at 0.156 µM amounted to 105%, the activity at 0.312 µM is 110% and the activity at 0.625 µM is 118%. In experiment [1], the activity at 1.25 µM worked out at 124%, the activity at 2.5 µM was 127%, the activity at 5 µM is 127% and the activity at 10 µM was determined as 123%. Also, the activity at 20 µM in experiment [1] is 117%. Besides, in the experiment on Primary Neurons, the 50% effective concentration (EC50) was found to be 0.486 µM.
For the molecule `COc1ccc(O)c(C(=O)c2ccc(C(=O)N[C@@H]3CNC[C@H]3NC(=O)c3cccnc3)cc2)c1F` [Example A38, N-[(3R,4R)-4-[4-(2-fluoro-6-hydroxy-3-methoxybenzoyl)benzamido]pyrrolidin-3-yl]pyridine-3-carboxamide], in experiment [1], the activity at 0.078 µM worked out at 108%, the activity at 0.156 µM was determined as 102%, the activity at 0.312 µM stood at 103% and the activity at 0.625 µM is 96.6%. In experiment [1], the activity at 1.25 µM is 100%, the activity at 2.5 µM was determined as 100%, the activity at 5 µM came to 106% and the activity at 10 µM was 100%. For the same molecule, the activity at 20 µM in experiment [1] is 87.7%. In the experiment on Primary Neurons, it took 3.15 µM to reach a half-maximal effect (EC50).
